In the Kinase Knowledgebase extract (Sharma et al. 2016):

Assays:
Test in all cases: Enzyme Assay
PIK3CG (human) = PIK3CG (human) (UniProt P48736)
PIK3CD (Human) = PIK3CD (Human) (UniProt O00329)
PIK3CA (human) = PIK3CA (human) (UniProt P42336)
Chain of PIK3CA (human) (P42336 whole entry, looked up): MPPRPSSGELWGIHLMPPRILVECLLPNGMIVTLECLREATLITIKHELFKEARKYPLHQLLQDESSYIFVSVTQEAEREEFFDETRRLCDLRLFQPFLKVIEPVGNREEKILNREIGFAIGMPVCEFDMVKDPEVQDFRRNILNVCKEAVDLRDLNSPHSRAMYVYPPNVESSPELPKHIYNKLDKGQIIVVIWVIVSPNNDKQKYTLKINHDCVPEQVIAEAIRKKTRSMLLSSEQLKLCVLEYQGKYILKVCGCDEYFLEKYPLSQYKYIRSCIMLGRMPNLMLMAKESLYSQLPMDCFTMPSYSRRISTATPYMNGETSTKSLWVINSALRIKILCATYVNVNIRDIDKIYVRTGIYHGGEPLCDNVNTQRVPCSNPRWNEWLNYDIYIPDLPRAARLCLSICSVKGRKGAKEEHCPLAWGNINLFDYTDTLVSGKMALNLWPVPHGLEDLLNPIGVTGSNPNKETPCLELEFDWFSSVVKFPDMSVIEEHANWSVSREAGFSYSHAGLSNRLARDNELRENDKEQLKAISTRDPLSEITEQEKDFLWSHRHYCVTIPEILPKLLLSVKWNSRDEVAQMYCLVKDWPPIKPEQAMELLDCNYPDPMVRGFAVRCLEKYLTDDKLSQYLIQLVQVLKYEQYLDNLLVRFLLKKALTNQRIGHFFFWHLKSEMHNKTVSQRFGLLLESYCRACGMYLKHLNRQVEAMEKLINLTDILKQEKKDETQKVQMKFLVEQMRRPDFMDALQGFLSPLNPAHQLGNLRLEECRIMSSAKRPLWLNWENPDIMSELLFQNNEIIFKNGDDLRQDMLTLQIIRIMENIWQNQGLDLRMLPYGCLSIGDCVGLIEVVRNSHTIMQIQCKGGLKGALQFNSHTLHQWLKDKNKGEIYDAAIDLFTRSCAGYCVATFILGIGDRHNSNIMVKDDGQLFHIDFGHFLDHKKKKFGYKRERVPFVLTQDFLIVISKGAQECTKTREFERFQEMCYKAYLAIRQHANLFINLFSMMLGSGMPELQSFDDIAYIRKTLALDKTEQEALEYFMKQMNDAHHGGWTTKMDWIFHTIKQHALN

Chain of PIK3CD (Human) (O00329 whole entry, looked up): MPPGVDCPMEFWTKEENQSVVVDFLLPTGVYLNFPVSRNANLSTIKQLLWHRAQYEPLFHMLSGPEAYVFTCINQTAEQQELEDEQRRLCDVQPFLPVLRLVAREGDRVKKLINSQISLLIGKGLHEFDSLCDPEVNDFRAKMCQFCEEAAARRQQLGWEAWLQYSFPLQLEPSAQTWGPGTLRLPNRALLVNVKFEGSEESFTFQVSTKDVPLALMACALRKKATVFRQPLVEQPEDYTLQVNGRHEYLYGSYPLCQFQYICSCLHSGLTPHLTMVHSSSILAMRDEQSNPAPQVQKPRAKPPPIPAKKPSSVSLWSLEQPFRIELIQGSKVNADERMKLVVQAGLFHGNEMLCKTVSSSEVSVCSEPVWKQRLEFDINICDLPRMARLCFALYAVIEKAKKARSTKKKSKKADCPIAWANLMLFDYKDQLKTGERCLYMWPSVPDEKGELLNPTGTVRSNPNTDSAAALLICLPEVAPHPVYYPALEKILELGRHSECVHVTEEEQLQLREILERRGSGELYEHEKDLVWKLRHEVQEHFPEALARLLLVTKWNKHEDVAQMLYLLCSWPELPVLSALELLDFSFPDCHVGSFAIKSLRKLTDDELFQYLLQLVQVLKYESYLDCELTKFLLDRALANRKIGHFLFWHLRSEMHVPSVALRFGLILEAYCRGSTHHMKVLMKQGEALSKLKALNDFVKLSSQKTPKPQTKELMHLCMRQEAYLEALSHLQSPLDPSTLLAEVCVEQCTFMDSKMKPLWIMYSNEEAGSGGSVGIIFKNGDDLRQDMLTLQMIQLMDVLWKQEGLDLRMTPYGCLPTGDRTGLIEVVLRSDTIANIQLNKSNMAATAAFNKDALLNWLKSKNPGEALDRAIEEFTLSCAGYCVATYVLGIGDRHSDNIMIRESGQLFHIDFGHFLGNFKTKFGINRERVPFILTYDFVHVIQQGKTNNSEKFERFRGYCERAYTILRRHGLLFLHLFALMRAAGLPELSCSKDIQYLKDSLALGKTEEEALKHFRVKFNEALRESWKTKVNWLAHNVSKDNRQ
Chain of PIK3CG (human) (P48736 whole entry, looked up): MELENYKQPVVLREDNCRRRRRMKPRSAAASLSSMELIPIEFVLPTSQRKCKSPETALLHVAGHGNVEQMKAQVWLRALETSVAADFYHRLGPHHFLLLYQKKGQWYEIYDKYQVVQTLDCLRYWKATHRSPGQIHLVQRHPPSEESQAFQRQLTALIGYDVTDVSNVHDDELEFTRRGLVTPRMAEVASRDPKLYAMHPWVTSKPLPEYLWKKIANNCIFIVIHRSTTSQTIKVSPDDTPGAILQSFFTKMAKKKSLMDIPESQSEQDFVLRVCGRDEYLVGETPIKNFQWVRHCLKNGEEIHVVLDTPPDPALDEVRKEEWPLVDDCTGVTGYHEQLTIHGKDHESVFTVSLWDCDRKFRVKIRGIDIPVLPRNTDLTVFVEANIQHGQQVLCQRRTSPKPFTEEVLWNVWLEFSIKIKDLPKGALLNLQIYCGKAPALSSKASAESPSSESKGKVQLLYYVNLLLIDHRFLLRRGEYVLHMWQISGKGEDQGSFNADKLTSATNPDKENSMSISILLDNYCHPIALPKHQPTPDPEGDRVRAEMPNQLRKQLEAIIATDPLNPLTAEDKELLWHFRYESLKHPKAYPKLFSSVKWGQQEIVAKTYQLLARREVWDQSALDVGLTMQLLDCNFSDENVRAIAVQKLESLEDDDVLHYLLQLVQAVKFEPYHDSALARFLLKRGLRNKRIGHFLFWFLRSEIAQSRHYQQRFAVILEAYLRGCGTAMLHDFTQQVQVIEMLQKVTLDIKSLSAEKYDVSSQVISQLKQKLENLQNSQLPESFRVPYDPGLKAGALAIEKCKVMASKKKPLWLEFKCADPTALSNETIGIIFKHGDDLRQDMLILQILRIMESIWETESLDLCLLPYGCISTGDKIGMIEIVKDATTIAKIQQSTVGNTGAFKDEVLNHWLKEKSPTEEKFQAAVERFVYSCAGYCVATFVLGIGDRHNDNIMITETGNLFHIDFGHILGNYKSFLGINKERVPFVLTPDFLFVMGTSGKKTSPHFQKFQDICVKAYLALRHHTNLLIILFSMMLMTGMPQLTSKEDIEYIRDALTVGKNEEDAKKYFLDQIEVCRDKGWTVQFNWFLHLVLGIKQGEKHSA

Row | SMILES | IC50 (PIK3CG (human)) | IC50 (PIK3CD (Human)) | IC50 (PIK3CA (human))
1 | C[C@H](Nc1ccnc2scnc12)c1cc2cccc(-c3cnn(C)c3)c2c(=O)n1-c1ccccc1 | < 100 nM | < 100 nM | 
2 | C[C@H](Nc1ncnc2scnc12)c1cc2cccc(-c3ccc(=O)n(C)c3)c2c(=O)n1-c1ccccc1 | 100 to 1000 nM | < 100 nM | 100 to 1000 nM
3 | C[C@H](Nc1ncnc2scnc12)c1cc2cccc(-c3ccoc3)c2c(=O)n1-c1ccccc1 | < 100 nM | < 100 nM | 100 to 1000 nM
4 | Cc1nn(C)cc1-c1cccc2cc([C@H](C)Nc3ncnc4scnc34)n(-c3ccccc3)c(=O)c12 | < 100 nM | < 100 nM | 100 to 1000 nM
5 | CCCn1cc(-c2cccc3cc([C@H](C)Nc4ncnc5scnc45)n(-c4ccccc4)c(=O)c23)cn1 | 100 to 1000 nM | < 100 nM | 
6 | Cc1cncc(-c2cccc3cc([C@H](C)Nc4ncnc5scnc45)n(-c4ccccc4)c(=O)c23)c1 | < 100 nM | < 100 nM | 100 to 1000 nM
7 | C[C@H](Nc1ncnc2scnc12)c1cc2cccc(-c3cnc4ccoc4c3)c2c(=O)n1-c1ccccc1 | < 100 nM | < 100 nM | 100 to 1000 nM
8 | Cc1ncc(-c2cccc3cc([C@H](C)Nc4ncnc5scnc45)n(C4CC4)c(=O)c23)cn1 | 100 to 1000 nM | < 100 nM | 
9 | C[C@H](Nc1ncnc2scnc12)c1cc2cccc(-c3cncnc3)c2c(=O)n1-c1ccccc1 | < 100 nM | < 100 nM | 
10 | C[C@H](Nc1ncnc2scnc12)c1cc2cccc(-c3cnc4c(c3)CCCO4)c2c(=O)n1-c1ccccc1 | < 100 nM | < 100 nM | 100 to 1000 nM
11 | COc1cccc(-c2cccc3cc([C@H](C)Nc4ncnc5scnc45)n(-c4ccccc4)c(=O)c23)c1 | < 100 nM | < 100 nM | 100 to 1000 nM
12 | Cc1nsc2cc(C(C)Nc3ncnc4scnc34)n(-c3ccccc3)c(=O)c12 (centres undefined) |  | < 100 nM | > 10000 nM
13 | C[C@H](Nc1ncnc2scnc12)c1cc2cccc(-c3cccnc3)c2c(=O)n1-c1ccccc1 | < 100 nM | < 100 nM | 
14 | C[C@H](Nc1ncnc2scnc12)c1cc2cccc(-c3ccncc3)c2c(=O)n1-c1ccccc1 | < 100 nM | < 100 nM | 100 to 1000 nM
15 | C[C@H](Nc1ncnc2scnc12)c1cc2cccc(-c3cccc(N(C)C)c3)c2c(=O)n1-c1ccccc1 | < 100 nM | < 100 nM | 100 to 1000 nM
16 | COc1cnccc1-c1cccc2cc([C@H](C)Nc3ncnc4scnc34)n(-c3ccccc3)c(=O)c12 | 100 to 1000 nM | 100 to 1000 nM | 
17 | CCn1cc(-c2cccc3cc([C@H](C)Nc4ncnc5scnc45)n(-c4ccccc4)c(=O)c23)cn1 | < 100 nM | < 100 nM | 
18 | COc1ncc(-c2cccc3cc([C@H](C)Nc4ncnc5scnc45)n(-c4ccccc4)c(=O)c23)cc1C | < 100 nM | < 100 nM | 
19 | C[C@H](Nc1ncnc2scnc12)c1cc2ccccc2c(=O)n1-c1ccccc1 | < 100 nM | < 100 nM | 
20 | C[C@H](Nc1ncnc2scnc12)c1cc2cccc(-c3cnc(OCc4ccccc4)nc3)c2c(=O)n1-c1ccccc1 | 100 to 1000 nM | < 100 nM | 
21 | Cc1cc(-c2cccc3cc([C@H](C)Nc4ncnc5scnc45)n(-c4ccccc4)c(=O)c23)ccn1 | < 100 nM | < 100 nM | 100 to 1000 nM
22 | C[C@H](Nc1ncnc2scnc12)c1cc2cccc(-c3cn[nH]c3)c2c(=O)n1-c1ccccc1 | < 100 nM | < 100 nM | 
23 | C[C@H](Nc1ncnc2scnc12)c1cc2cccc(-c3cnn(C)c3)c2c(=O)n1C |  | 100 to 1000 nM | 
24 | Cc1cc(-c2cccc3cc([C@H](C)Nc4ncnc5scnc45)n(-c4ccccc4)c(=O)c23)cnc1F | < 100 nM | < 100 nM | 
25 | C[C@H](Nc1nc(Cl)nc2scnc12)c1cc2cccc(-c3cnn(C)c3)c2c(=O)n1-c1ccccc1 | 100 to 1000 nM | < 100 nM | 
